Holding throughout (assay): NCI-60 cell line screen, 48 h
Assay [1] relates to HCT-116 colon.
In assay [2] the test system is HOP-62 NSCLC.
Assay [3] deals with CCRF-CEM leukemia.
The test system of assay [4] is SK-MEL-5 melanoma.
Assay [5] concerns UACC-257 melanoma.
For assay [6], the system named is SF-268 CNS.
Assay [7] has as its system 786-0 renal.
For assay [8], the system named is HS 578T breast.
Assay [9] has as its system T-47D breast.
In assay [10] the test system is A549 NSCLC.

The structures appear in SMILES notation.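 Each compound was tested at five concentrations against cells in 96-well plates for 48 hours. Abbreviation: GI50, concentration required for 50% inhibition of growth. TGI denotes the concentration required for complete inhibition of growth.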 A value given as a limit tells only on which side of the number the result lay.

Regarding `CNC(=O)c1ccccc1Nc1nc(Nc2ccc(N3CCOCC3)cc2OC)ncc1Cl`, the GI50 in assay [1] was 0.537 µM; in assay [2], 0.341 µM; in assay [3] it was 0.531 µM; in [4] it was 1.68 µM; in [5], 0.421 µM; in assay [6], 1.57 µM. The GI50 was 1.03 µM in [7], 1.7 µM in assay [8], 1.28 µM in assay [9] and 0.344 µM in [10]. Further, the TGI in assay [1] is above 35.3 µM; in assay [2], 9.07 µM; in [3], above 81.9 µM; in assay [4], above 37.8 µM; in assay [5] it was above 100 µM; in assay [6] it was above 100 µM. For the same compound, the TGI was above 35.1 µM in assay [7], above 26.4 µM in assay [8], above 36.1 µM in assay [9] and above 20.4 µM in [10].
Turning to `COc1ccc(-c2cc(-c3ccc(Nc4nc(Nc5ccccc5)nc(Nc5ccc(Cl)cc5)n4)cc3)nc(N)c2C#N)cc1`, the GI50 in [1] was 0.675 µM; in [2], 1.93 µM; in assay [3] it was 1.7 µM; in [4] it was 1.18 µM; in assay [5], 1.25 µM; in assay [6], 1.04 µM. Besides, the GI50 in assay [7] is 1.05 µM; in assay [8] it was 1.21 µM; in [9], 0.733 µM; in [10], 2.74 µM. In addition, the TGI in [1] was 1.37 µM; in assay [2], 8.98 µM; in assay [3], above 50 µM; in [4], 3.03 µM; in assay [5], 3.15 µM; in assay [6], 2.49 µM. Moreover, the TGI in [7] is 2.06 µM; in assay [8] it was 5.08 µM; in [9], 1.65 µM; in assay [10] it was above 50 µM.
With `COc1cc2nc(-c3ccc(C(F)(F)F)cc3)cc(OCCCN3CCC(O)CC3)c2cc1OC`, the GI50 is 0.671 µM in assay [1]; 1.8 µM in assay [2]; 3.27 µM in assay [3]; 1.43 µM in assay [4]; 2.28 µM in assay [5]; 5.76 µM in assay [6]. Also, the GI50 in assay [7] was 4.72 µM; in assay [8], 3.75 µM; in assay [9] it was 2.97 µM; in assay [10] it was 1.65 µM. The TGI in assay [1] was 17.2 µM; in assay [2] it was 15 µM; in [3], 17.7 µM; in assay [4] it was 4.72 µM; in assay [5], 6.5 µM; in assay [6], 24.7 µM. The TGI in assay [7] amounted to 19.8 µM; in [8], 20.9 µM; in assay [9] it was 19.1 µM; in [10], 18.4 µM.
In the case of `Cc1ccc(-c2nnc(-c3ccc4ccccc4c3)o2)cc1`, the TGI was above 100 µM in [1]; above 77.4 µM in assay [2]; above 25 µM in assay [3]; above 100 µM in assay [4]; above 100 µM in assay [5]; above 100 µM in assay [6]. Further, the TGI in [7], in [8], in assay [9] and in assay [10] was above 100 µM each time.
For `CSc1ccccc1C#C/C=C\C#Cc1ccccc1N1CCCC1=O`, the TGI in [1] is above 50 µM; in [2] it was above 50 µM; in assay [3], above 50 µM; in assay [4], above 18.3 µM; in [5], above 50 µM; in assay [6], above 50 µM. The TGI in [7] is above 50 µM; in assay [8], above 50 µM; in [9], above 20.3 µM; in assay [10], above 50 µM. For the same compound, the GI50 in [2] is above 15.8 µM; in assay [5] it was above 12.5 µM; in [6], above 10.2 µM; in [7] it was above 22 µM; in assay [8], above 9.95 µM; in assay [10] it was above 11 µM.
As to `O=C(CCl)N1c2ccccc2Oc2ccc3ccccc3c21`, the GI50 in assay [1] was 0.358 µM; in [2], 1.81 µM; in assay [3], 0.163 µM; in [4], 1.59 µM; in [5], 1.53 µM; in assay [6], 1.52 µM. Moreover, the GI50 is 2.05 µM in assay [7], 2.29 µM in assay [8], 1.69 µM in assay [9] and 1.9 µM in assay [10]. Moreover, the TGI in assay [1] is 1.29 µM; in [2], 3.25 µM; in [3], 3.39 µM; in [4], 2.98 µM; in [5], 3.16 µM; in assay [6] it was 2.94 µM. For the same compound, the TGI worked out at 3.56 µM in assay [7], 4.15 µM in assay [9] and 3.81 µM in [10].
Turning to `O=C1c2cccnc2-c2nc(-c3ccccc3[N+](=O)[O-])cc3c2c1nc1ccccc13`, the GI50 in [1] was 5.83 µM; in [2], 16 µM; in assay [3], above 100 µM; in assay [4], 2.6 µM; in [5] it was 2.01 µM; in assay [6], 6.39 µM. Moreover, the GI50 in assay [7] was 14.7 µM; in [8] it was 31.2 µM; in assay [9], 5.3 µM; in assay [10] it was 14.4 µM. Also, the TGI in assay [1] is 16.7 µM; in [2] it was 41 µM; in assay [3] it was above 100 µM; in assay [4] it was 8.23 µM; in assay [5], 13.3 µM; in [6] it was above 69.1 µM. For the same compound, the TGI in [7] is 35.1 µM; in [8], 86.4 µM; in assay [9], above 100 µM; in assay [10] it was 30.1 µM.
For `Clc1cccc(Cc2cn3cc(-c4ccccc4)nc3s2)c1Cl`, the GI50 in assay [1] was above 100 µM; in assay [2] it was 3.9 µM; in [3], above 100 µM; in [4], above 100 µM; in assay [5], 67.3 µM; in [6], 59.9 µM. The GI50 in [7] is above 100 µM; in assay [8], 17.4 µM; in assay [9] it was 0.963 µM; in assay [10], 27.2 µM. The TGI in assay [1] is above 100 µM; in [2] it was 47.7 µM; in assay [3], above 100 µM; in assay [4] it was above 100 µM; in [5], above 100 µM; in assay [6] it was above 100 µM. For the same compound, the TGI in [7], in assay [8], in assay [9] and in assay [10] was above 100 µM each time.
Turning to `Cc1cc2nc(C(Cl)Cl)nc(-c3ccc(Cl)cc3)n2n1`, the GI50 was 0.566 µM in assay [1]; 0.864 µM in assay [2]; 2.83 µM in assay [3]; 1.68 µM in assay [4]; 2.3 µM in assay [5]; 1.34 µM in assay [6]. Besides, the GI50 was 4.93 µM in [7], 1.34 µM in assay [8], 2.19 µM in [9] and 0.448 µM in assay [10]. For the same compound, the TGI in [1] was above 33.1 µM; in [2], 4.27 µM; in [3] it was above 100 µM; in assay [4] it was 3.48 µM; in [5], 5.49 µM; in assay [6], 4.47 µM. The TGI was above 100 µM in assay [7], 4.6 µM in assay [8], above 26.3 µM in assay [9] and 3.28 µM in assay [10].
On to `Cc1cc(=O)n2[nH]c(-c3ccc(C(C)(C)C)cc3)cc2n1`, for which the GI50 in assay [1] was 8.25 µM; in assay [2], 17.5 µM; in assay [3] it was 4.19 µM; in assay [4] it was 1.82 µM; in assay [5], 4.32 µM; in assay [6], 7.85 µM. The GI50 is 10.3 µM in assay [7], 3.74 µM in assay [8], 4.43 µM in assay [9] and 11.6 µM in assay [10]. Also, the TGI in assay [1] is above 100 µM; in assay [2] it was 76.9 µM; in assay [3], above 100 µM; in [4], 12.1 µM; in assay [5], 49.6 µM; in [6] it was 72.8 µM. The TGI in [7] is above 100 µM; in assay [8], 33.3 µM; in [9] it was 79.8 µM; in assay [10] it was above 100 µM.
Consider `O=C(Nc1ccc(F)cc1F)c1cc(I)ccc1O`, for which the GI50 is 2.53 µM in [1]; 2.42 µM in assay [2]; 4.05 µM in [3]; 1.7 µM in assay [4]; 2.09 µM in assay [5]; 3 µM in [6]. In addition, the GI50 in [7] is 3.13 µM; in [8] it was 2.37 µM; in assay [9], 1.99 µM; in assay [10] it was 3.1 µM. In addition, the TGI in assay [1] was 7.6 µM; in assay [2], 7.87 µM; in assay [3], above 100 µM; in assay [4] it was 3.35 µM; in [5], 7.09 µM; in [6], 47.4 µM. The TGI in assay [7] is 9.7 µM; in [8], 8.07 µM; in [9], 6.8 µM; in [10] it was above 100 µM.

(Values after PubChem BioAssay (NCI).)
